From US5811393A (The Childrens Medical Center Corp., priority 1993, dated 1998)

Key:
EGF receptor = EGF receptor autophosphorylation in A-431 cells (anti-phosphotyrosine Western blot); assay type: cell-based, human; conditions: 5 ng/ml, 15 minutes
Protocol: This was shown by plating A-431 cells in 6-well plates and culturing in Dulbecco's Modified Eagle's Medium (DMEM) containing 10% fetal bovine serum and antibiotics. […] After 15 minutes, the cells were washed with ice-cold phosphate-buffered saline containing 0.4 mm EDTA, 10 mM Na-fluorate, 10 mM Na-pyrophosphate and 0.4 mM Na-orthovanadate, scraped and lysed in 100 μl of PI/RIPA buffer [1% NP-40 (Pierce, Rockford, Ill.), 1% deoxycholate (Aldrich, Milwaukee, Wis.), 0.1% SDS, 1% aprotinin (Boehringer-Mannheim, Indianapolis, Ind.), 1 mM PMSF (Pierce), 2 mM EDTA (Sigma), 10 mM Na-fluorate, (Sigma, St. Louis, Mo.), 10 mM Na-pyrophosphate (Baker, Phillipsburg, N.J.), 0.4 mM Na-orthovanadate, (Aldrich), 10 mM iodoacetamide (Aldrich) in phosphate buffered saline]. Thirty μl of supernatant clarified by spinning for a 5 minute period in a microfuge was analyzed by reducing SDS/polyacrylamide gel electrophoresis (6% polyacrylamide gel). […] A standard of phosphorylated EGF receptor was purchased from UBI (Lake Placid, N.Y.).

[1] = tested on: bovine aortic smooth muscle cells (BASMC); assay: Bovine aortic smooth muscle cell proliferation by cell counting; assay type: cell-based; conditions: cells counted after three days, 1% calf serum
Protocol: Bovine aortic smooth muscle cell proliferation was also assayed by counting cell number following growth factor stimulation. In these experiments, cells were plated sparsely in 24 well plates in DMEM/10% bovine calf serum/1% GPS (100% GPS is glutamine 29.2 mg/ml, penicillin 10,000 units/ml, streptomycin sulfate 10,000 μg/ml; GIBCO, Grand Island, N.Y.) at 10^4 cells/well. Test samples were then added and, after three days, cells were removed by trypsinization and counted in a Coulter counter (Coulter, Hialeah, Fla.).
BASMC were plated in DMEM, 10% calf serum, 100 U/ml penicillin, 100 μg/ml streptomycin sulfate at 5×10^3 cells/well in a 24 well plate, and, after attachment of the cells (e.g., following an overnight incubation), the media was replaced with DMEM, 1% calf serum, and penicillin and streptomycin as above. HB-EHM, recombinant human EGF (Creative Biomolecules, Hopkinton, Mass.), or recombinant PDGF (Creative Biomolecules, Hopkinton, Mass.) was then added to the wells. Cells were counted after three days.

EGF receptors on BASMC = assay: Competitive [125I]EGF binding to bovine aortic smooth muscle cells; conditions: BASMC
Protocol: Competitive binding assays were used to measure this interaction and were performed as follows.

[2] = cited from earlier work
[3] = target: EGF receptor on bovine aortic smooth muscle cells (BASMC) (bovine)
[4] = target: EGF receptor on bovine aortic smooth muscle cells (BASMC) (bovine); remark: listed apart in the source
BALB/c mouse 3T3 cells = assay: DNA synthesis ([3H]-thymidine incorporation) / proliferation of BALB/c mouse 3T3 cells; assay type: cell-based; conditions: E. coli-produced protein
Protocol: Conditioned medium was assayed for growth factor activity directly, as described below, using either fibroblasts (i.e., BALB/c mouse 3T3 cells), epithelial cells (i.e., human keratinocytes), or smooth muscle cells (i.e., bovine aortic smooth muscle cells, BASMC). Alternatively, CM was first fractionated by fast protein liquid chromatography (FPLC, Pharmacia, Piscataway, N.J.) by applying 500 ml of the CM to a TSK-heparin 5PW column (8×75 mm, TOSOHAAS, Philadelphia, Pa.). The column was washed with 10 column volumes of equilibration buffer (0.2M NaCl, 0.01M Tris-HCl, pH 7.5), and bound protein was eluted with a 40 ml linear gradient of 0.2-2M NaCl in 0.01M Tris-HCl , pH 7.4 at 1 ml/min. Fractions (2.5 ml) were tested for growth factor activity by measuring the effect of aliquots of the fractions on DNA synthesis in, or the proliferation of, BALB/c mouse 3T3 cells; such activity was monitored by assaying the incorporation of [^3 H]-thymidine into DNA and/or by measuring the increase in cell number. […] One unit of BALB/c mouse 3T3 stimulation activity was defined as the amount of growth factor required to stimulate half-maximal DNA synthesis in BALB/c mouse 3T3 cells under the conditions described in Shing et al. (supra).

In the case of “EGF: epidermal growth factor, recombinant human, commercial comparator [reference compound]”, the “autophosphorylation of the EGF receptor (170 kDa protein)” value (EGF receptor) is reported as “also phosphorylated”, the “increase in BASMC proliferation” value ([1]; 4 ng/ml) is reported as 2.5 fold and the “50% inhibition of [125I]EGF binding” value (EGF receptors on BASMC; 6-well plates) is reported as 290 pg/mL. For the same molecule, the IC50 (EGF receptors on BASMC; read-out: 50% inhibition of [125I]EGF binding, molar value in brackets) was 48 pM and the binding to heparin ([2]; conditions of the cited references) was “does not bind heparin to any substantial extent”.

For PDGF, the “increase in BASMC proliferation” value ([1]; 500 pg/ml) is given as 2.5 fold and the “NaCl concentration eluting from immobilized heparin columns” value ([2]; literature values) is given as 0.5 M.

“recombinant human EGF (from UniProt P01133) (ligand)” showed a BASMC proliferation (cell count after three days) (fold increase) [3] of 2.5.

B1: heparin binding EGF-homologous mitogen (HB-EHM), purified from U-937 conditioned medium, 33 minute peak form (ligand)
chain: RVTLSSKPQALATPNKEEHGKRKKKGKGLGKKRDPCLRKYKDFCIHGECKYVKELRAPSCICHPGYHGERCHGLS
modifications: O-linked glycosylation (suggested by O-glycanase treatment; the threonines predicted at positions 2 and 12 of the form first sequenced were not detected in protein sequencing)
Molecule B1 has a BASMC proliferation (cell count after three days) (fold increase) [3] of 2.5 and a Maximal Stimulation (ng/ml), from 3H-thymidine incorporation into smooth muscle cell DNA, C4 RP-HPLC step [4] of 0.5 ng/mL.

B2: recombinant HB-EHM: HB-EHM produced in E. coli from plasmid pNA28 as CAT fusion, cleaved, refolded and purified (protein)
chain: RVTLSSKPQALATPNKEEHGKRKKKGKGLGKKRDPCLRKYKDFCIHGECKYVKELRAPSCICHPGYHGERCHGLS
modifications: O-linked glycosylation (suggested by O-glycanase treatment; the threonines predicted at positions 2 and 12 of the form first sequenced were not detected in protein sequencing)
For B2, the “activity in the BALB/c 3T3 [3H]-thymidine uptake/incorporation assay” value (BALB/c mouse 3T3 cells) was “active”.
